Measurements reported in patent US20220313728A1 (priority 2021, published 2022).

Assays:
[1] = system: patients with severe TRMD; experiment: Same trial; Montgomery-Asberg Depression Rating Scale (MADRS); assay type: in vivo, human; conditions: 25% nitrous oxide
Text: (§1) The trial was registered at clinicaltrials.gov (NCT03283670).
(§2) Patients were recruited from an existing database of TRMD patients identified through participation in a secondary referral clinic for TRMD at Washington University Department of Psychiatry, as well as from the “Volunteers for Health” patient pool (individuals with various medical/psychiatric conditions who volunteer to participate in clinical research) within Washington University School of Medicine. Inclusion criteria were a) adults 18-75 years of age; b) current diagnosis of unipolar major depressive disorder (MDD) without psychosis as confirmed by the Mini International Neuropsychiatric Interview; c) a score of ≥19 on the Montgomery-Asberg Depression Rating Scale (MADRS); d) documented lifetime failure to respond to ≥3 adequate dose/duration antidepressant treatment trials, including ≥1 antidepressant medication failure(s) in the current depressive episode; and e) good command of the English language. […] Patients were instructed to continue their current standard of care MDD treatment and to maintain a stable psychotropic medication dosage or psychotherapy regimen for 4 weeks prior to initiation of the study and throughout the study. […]

[2] = system: patients with severe TRMD; experiment: Same trial; Profile of Mood States 2nd Edition (POMS-2); assay type: in vivo, human
Text: as §1, §2

[3] = system: Major Depressive Disorder; conditions: 50% nitrous oxide; cited from earlier work
bothersome tinnitus = conditions: similar clinical trial; 85% of patients correctly guessed the treatment arm; cited from earlier work

[N-]=[N+]=O [nitrous oxide]
MADRS efficacy [1]: not significant
Results on the POMS scale ([2]; 25% nitrous oxide): non-significant
Results on the POMS scale ([2]; 50% nitrous oxide): significant at 2 weeks
Persistence of efficacy after a single inhalation (case report) [3]: beyond one month
Treatment effect for bothersome tinnitus (bothersome tinnitus): did not observe a treatment effect
